According to article PMC8809408 (Frontiers in Pharmacology, 2022):

These molecules were tested on pseudotyped viruses harboring glycoprotein of vesicular stomatitis virus (VSV).
Format: cell-based

| Compound | luciferase activity (infection by VSV-G pseudotyped viruses) |
| --- | --- |
| CN(C)CCCC1(c2ccc(F)cc2)OCc2cc(C#N)ccc21 (stereo not shown) [Citalopram] | remained ineffective |
| CN(C)CCCN1c2ccccc2CCc2ccc(Cl)cc21 [Clomipramine] | reduced the infection |
| CNCCC(Oc1ccc(C(F)(F)F)cc1)c1ccccc1 (stereo not shown) [Fluoxetine] | reduced the infection |
| OCCN1CCN(CCC=C2c3ccccc3Sc3ccc(C(F)(F)F)cc32)CC1 [Flupenthixol] | reduced the infection |
| COCCCC/C(=N\OCCN)c1ccc(C(F)(F)F)cc1 [Fluvoxamine] | remained ineffective |
| Fc1ccc([C@@H]2CCNC[C@H]2COc2ccc3c(c2)OCO3)cc1 [Paroxetine] | remained ineffective |
| CCOc1ccccc1OC(c1ccccc1)C1CNCCO1 (stereo not shown) [Reboxetine] | reduced the infection |
